{"source": "patent US7244758B2", "about": "“N-type calcium channel blockers” (Neuromed Pharmaceuticals Ltd., priority 2003, dated 2007)", "key": {"[1]": {"target": "T1, rat brain N-type calcium channel subunits (α1B+α2δ+β1b) (Rattus norvegicus, UniProt Q02294)", "T1 construct": "expressed in transfected cells; host or cells: HEK 293", "T1 sequence (Q02294 whole entry)": "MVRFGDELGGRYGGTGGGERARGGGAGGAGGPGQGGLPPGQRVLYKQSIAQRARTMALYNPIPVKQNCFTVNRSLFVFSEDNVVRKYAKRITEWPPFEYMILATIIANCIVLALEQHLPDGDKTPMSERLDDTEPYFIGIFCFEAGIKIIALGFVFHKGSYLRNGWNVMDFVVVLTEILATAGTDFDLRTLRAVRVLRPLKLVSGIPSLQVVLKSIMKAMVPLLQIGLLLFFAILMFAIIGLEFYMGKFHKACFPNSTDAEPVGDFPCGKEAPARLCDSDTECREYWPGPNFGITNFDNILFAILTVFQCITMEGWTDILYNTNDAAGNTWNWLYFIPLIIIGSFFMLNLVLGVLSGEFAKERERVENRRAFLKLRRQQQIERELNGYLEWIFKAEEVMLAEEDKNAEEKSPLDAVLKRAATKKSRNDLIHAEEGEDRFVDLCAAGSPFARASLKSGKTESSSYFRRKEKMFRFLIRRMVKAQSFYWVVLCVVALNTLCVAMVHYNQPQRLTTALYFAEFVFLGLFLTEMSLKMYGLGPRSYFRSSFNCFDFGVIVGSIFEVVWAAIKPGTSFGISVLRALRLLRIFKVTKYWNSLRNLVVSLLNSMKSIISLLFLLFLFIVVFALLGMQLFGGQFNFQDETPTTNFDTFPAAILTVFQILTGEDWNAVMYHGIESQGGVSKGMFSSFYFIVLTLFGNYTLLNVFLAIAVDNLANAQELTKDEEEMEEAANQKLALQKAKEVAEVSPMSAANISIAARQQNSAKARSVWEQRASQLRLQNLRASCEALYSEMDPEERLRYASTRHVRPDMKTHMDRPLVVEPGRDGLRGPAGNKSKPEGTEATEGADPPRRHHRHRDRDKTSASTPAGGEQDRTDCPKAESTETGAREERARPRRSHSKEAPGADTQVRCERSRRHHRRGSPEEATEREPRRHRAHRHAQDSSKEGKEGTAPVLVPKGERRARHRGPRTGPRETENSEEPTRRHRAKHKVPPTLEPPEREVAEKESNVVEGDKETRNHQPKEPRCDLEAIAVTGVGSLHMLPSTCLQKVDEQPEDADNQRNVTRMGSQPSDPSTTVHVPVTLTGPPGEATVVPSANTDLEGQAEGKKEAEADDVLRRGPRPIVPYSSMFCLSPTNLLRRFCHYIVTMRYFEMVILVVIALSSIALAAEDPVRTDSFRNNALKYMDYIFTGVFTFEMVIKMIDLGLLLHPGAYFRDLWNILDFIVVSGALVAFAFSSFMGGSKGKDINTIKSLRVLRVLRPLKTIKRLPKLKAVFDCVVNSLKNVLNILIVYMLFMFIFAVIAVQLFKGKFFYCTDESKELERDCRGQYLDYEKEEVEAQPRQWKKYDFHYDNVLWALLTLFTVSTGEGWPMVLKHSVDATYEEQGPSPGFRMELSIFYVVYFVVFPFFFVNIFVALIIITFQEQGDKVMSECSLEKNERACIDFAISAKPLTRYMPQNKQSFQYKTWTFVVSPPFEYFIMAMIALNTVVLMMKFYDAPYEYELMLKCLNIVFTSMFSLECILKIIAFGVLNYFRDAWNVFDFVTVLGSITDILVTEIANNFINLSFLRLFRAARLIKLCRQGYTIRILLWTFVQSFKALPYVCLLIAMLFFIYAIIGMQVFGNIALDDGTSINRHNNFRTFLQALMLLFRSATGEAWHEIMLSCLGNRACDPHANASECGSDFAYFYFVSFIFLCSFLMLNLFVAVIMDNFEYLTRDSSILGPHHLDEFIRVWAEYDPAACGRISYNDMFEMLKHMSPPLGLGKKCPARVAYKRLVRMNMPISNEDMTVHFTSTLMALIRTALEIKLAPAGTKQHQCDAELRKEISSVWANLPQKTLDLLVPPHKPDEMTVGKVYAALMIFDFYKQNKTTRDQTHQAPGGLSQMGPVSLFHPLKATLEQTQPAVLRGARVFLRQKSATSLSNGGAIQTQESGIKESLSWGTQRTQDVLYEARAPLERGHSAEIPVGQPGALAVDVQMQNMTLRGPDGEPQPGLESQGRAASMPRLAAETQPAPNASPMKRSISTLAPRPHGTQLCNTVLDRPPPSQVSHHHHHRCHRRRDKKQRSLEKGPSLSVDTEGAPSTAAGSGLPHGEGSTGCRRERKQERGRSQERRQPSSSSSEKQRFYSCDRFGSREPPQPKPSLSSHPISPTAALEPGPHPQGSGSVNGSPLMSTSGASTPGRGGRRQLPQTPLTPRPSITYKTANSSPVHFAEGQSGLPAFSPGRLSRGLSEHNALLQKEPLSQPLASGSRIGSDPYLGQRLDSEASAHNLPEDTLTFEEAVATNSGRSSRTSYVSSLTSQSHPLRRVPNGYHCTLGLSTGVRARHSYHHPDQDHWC", "test": "N-type calcium channel block, whole cell patch clamp in HEK 293 cells", "assay_type": "cell-based", "conditions": "low frequency stimulation 0.067 Hz (tonic block), holding −80 mV to +10 mV, 5 mM Ba; read-out: IC50 at 0.067 Hz", "procedure": "(§1) Antagonist activity was measured using whole cell patch recordings on human embryonic kidney cells either stably or transiently expressing rat α1B+α2δ+β1b channels (N-type channels) with 5 mM barium as a charge carrier. P/Q-type channels (α1A+α2δ+β1b cDNA subunits) and L-type channels (α1C+α2δ+β1b cDNA subunits) were also transiently expressed in HEK 293 cells.\nFor transient expression, host cells, such as human embryonic kidney cells, HEK 293 (ATCC# CRL 1573) were grown in standard DMEM medium supplemented with 2 mM glutamine and 10% fetal bovine serum. HEK 293 cells were transfected by a standard calcium-phosphate-DNA coprecipitation method using the rat α1B+β1b+α2δ N-type calcium channel subunits in a vertebrate expression vector (for example, see Current Protocols in Molecular Biology).\nAfter an incubation period of from 24 to 72 hrs the culture medium was removed and replaced with external recording solution (see below). Whole cell patch clamp experiments were performed using an Axopatch 200B amplifier (Axon Instruments, Burlingame, Calif.) linked to an IBM compatible personal computer equipped with pCLAMP software. Borosilicate glass patch pipettes (Sutter Instrument Co., Novato, Calif.) were polished (Microforge, Narishige, Japan) to a resistance of about 4 MΩ when filled with cesium methanesulfonate internal solution (composition in MM: 109 CsCH3 SO4, 4 MgCl2, 9 EGTA, 9 HEPES, pH 7.2). Cells were bathed in 5 mM Ba^++ (in mM: 5 BaCl2, 1 MgCl2, 10 HEPES, 40 tetraethylammonium chloride, 10 glucose, 87.5 CsCl pH 7.2). […] Drugs were perfused directly into the vicinity of the cells using a microperfusion system.\nNormalized dose-response curves were fit (Sigmaplot 4.0, SPSS Inc., Chicago, Ill.) by the Hill equation to determine IC50 values. Steady-state inactivation curves were plotted as the normalized test pulse amplitude following 5 s inactivating prepulses at +10 mV increments. Inactivation curves were fit (Sigmaplot 4.0) with the Boltzman equation, Ipeak (normalized)=1/(1+exp((V−Vh)z/25.6)), where V and Vh are the conditioning and half inactivation potentials, respectively, and z is the slope factor.\nN-type calcium channel blocking activity was assayed in human embryonic kidney cells, HEK 293, stably transfected with the rat brain N-type calcium channel subunits (α1B+α2δ+β1b cDNA subunits). Alternatively, N-type calcium channels (α1B+α2δ+β1b cDNA subunits), L-type channels (α1C+α2δ+β1b cDNA subunits) and P/Q-type channels (α1A+α2δ+β1b cDNA subunits) were transiently expressed in HEK 293 cells. Briefly, cells were cultured in Dulbecco's modified eagle medium (DMEM) supplemented with 10% fetal bovine serum, 200 U/ml penicillin and 0.2 mg/ml streptomycin at 37° C. with 5% CO2. At 85% confluency cells were split with 0.25% trypsin/1 mM EDTA and plated at 10% confluency on glass coverslips. At 12 hours the medium was replaced and the cells transiently transfected using a standard calcium phosphate protocol and the appropriate calcium channel cDNA's. Fresh DMEM was supplied and the cells transferred to 28° C./5% CO2. Cells were incubated for 1 to 2 days to whole cell recording.\nWhole cell patch clamp experiments were performed using an Axopatch 200B amplifier (Axon Instruments, Burlingame, Calif.) linked to a personal computer equipped with pCLAMP software. The external and internal recording solutions contained, respectively, 5 mM BaCl2, […], 10 mM HEPES, 40 mM TEACl, 10 mM glucose, 87.5 mM CsCl (pH 7.2) and 108 mM CsMS, 4 mM MgCl2, 9 mM EGTA, 9 mM HEPES (pH 7.2). Currents were typically elicited from a holding potential of −80 mV to +10 mV using Clampex software (Axon Instruments)."}, "[2]": {"target": "T2, human α1G T-type channels (Homo sapiens, UniProt O43497)", "T2 construct": "expressed in transfected cells", "T2 sequence (O43497 whole entry)": "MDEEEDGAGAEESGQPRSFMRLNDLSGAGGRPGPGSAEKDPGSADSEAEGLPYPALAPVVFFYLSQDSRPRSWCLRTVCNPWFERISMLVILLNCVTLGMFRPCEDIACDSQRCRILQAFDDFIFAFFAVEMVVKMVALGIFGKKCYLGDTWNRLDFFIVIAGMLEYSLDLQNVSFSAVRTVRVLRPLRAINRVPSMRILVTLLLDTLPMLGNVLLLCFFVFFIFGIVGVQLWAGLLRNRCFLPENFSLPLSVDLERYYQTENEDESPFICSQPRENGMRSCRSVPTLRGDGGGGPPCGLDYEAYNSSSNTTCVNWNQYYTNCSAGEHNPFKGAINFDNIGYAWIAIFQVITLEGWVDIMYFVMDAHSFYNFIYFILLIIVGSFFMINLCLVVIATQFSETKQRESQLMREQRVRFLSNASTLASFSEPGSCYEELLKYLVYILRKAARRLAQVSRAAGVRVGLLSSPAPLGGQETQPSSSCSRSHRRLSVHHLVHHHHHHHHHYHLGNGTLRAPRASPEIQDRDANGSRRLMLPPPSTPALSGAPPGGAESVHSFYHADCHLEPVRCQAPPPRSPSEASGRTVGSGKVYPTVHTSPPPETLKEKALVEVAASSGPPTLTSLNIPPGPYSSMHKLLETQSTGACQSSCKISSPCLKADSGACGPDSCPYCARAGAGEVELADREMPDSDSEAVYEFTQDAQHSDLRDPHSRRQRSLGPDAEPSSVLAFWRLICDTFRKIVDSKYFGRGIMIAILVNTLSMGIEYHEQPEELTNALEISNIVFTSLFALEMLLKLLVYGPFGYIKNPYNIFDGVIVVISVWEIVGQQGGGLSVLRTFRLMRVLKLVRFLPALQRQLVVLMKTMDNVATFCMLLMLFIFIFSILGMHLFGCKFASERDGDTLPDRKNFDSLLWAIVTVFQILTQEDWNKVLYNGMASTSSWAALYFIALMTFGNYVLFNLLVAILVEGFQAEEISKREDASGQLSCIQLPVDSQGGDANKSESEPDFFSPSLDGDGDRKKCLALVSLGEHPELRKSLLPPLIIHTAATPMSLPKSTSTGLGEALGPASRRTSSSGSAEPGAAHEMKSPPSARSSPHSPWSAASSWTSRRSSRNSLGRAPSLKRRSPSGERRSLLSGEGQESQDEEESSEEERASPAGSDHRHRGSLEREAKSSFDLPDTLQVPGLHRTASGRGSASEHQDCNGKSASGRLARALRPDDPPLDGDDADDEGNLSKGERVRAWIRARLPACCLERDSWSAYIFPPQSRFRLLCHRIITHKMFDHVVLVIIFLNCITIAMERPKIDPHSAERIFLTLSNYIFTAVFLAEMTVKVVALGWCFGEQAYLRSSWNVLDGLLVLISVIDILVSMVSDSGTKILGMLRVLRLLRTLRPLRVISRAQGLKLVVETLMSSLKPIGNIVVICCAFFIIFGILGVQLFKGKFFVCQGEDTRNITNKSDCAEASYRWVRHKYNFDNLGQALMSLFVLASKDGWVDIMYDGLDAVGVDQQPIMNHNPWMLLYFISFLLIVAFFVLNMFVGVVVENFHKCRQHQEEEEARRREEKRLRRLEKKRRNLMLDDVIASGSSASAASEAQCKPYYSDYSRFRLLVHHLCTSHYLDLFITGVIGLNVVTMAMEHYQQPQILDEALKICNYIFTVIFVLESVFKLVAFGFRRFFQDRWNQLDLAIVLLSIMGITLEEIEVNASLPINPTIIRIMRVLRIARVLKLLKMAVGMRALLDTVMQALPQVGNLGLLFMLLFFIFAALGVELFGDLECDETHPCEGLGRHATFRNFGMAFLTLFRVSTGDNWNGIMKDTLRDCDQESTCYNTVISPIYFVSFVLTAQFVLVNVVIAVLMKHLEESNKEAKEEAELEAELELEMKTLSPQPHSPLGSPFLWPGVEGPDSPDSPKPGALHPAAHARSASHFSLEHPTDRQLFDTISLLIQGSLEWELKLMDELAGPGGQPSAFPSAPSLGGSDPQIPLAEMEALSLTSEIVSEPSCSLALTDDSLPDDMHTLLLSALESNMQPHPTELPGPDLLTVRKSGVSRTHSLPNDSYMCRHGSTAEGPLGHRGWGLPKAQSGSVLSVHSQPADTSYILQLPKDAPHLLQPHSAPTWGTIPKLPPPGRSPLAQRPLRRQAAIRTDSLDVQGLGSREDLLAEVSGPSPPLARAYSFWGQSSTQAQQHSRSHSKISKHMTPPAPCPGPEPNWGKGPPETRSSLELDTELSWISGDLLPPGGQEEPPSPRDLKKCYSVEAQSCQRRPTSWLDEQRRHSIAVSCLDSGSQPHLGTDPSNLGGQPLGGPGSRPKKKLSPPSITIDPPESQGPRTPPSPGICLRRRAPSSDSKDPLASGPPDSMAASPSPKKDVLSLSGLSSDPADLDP", "test": "Block of α1G T-type channels, whole-cell patch clamp in HEK cells", "assay_type": "cell-based", "conditions": "non-inactivating protocol, pre-pulse −100 mV (resting block); read-out: IC50 at −100 mV", "procedure": "Standard patch-clamp techniques were employed to identify blockers of T-type currents. Briefly, previously described HEK cell lines stably expressing human α1G T-type channels were used for all the recordings (passage #: 4-20, 37° C., 5% CO2). To obtain T-type currents, plastic dishes containing semi-confluent cells were positioned on the stage of a ZEISS AXIOVERT S100 microscope after replacing the culture medium with external solution (see below). Whole-cell patches were obtained using pipettes (borosilicate glass with filament, O.D.: 1.5 mm, I.D.: 0.86 mm, 10 cm length), fabricated on a SUTTER P-97 puller with resistance values of ˜5 MΩ (see below for internal solution).\nIn the non-inactivating protocol, the holding potential is set at −110 mV and with a pre-pulse at −100 mV for 1 second prior to the test pulse at −40 mV for 50 ms. […]\nTest compounds were dissolved in external solution, 0.1-0.01% DMSO. After ˜10 min rest, they were applied by gravity close to the cell using a WPI microfil tubing. The “non-inactivated” pre-pulse was used to examine the resting block of a compound. The “inactivated” protocol was employed to study voltage-dependent block. However, the initial data shown below were mainly obtained using the non-inactivated protocol only. IC50 values are shown for various compounds of the invention in Table 6."}, "rat formalin model": {"tested_on": "rat formalin model", "test": "Formalin-induced pain model (paw flinches)", "assay_type": "in vivo", "conditions": "30 mg/kg IP, 10 min before formalin, saline control=100%", "procedure": "The effects of intrathecally delivered compounds of the invention on the rat formalin model were measured. The compounds were reconstituted to stock solutions of approximately 10 mg/ml in propylene glycol. Eight Holtzman male rats of 275-375 g size were randomly selected per test article.\nThe following study groups were used, with test article, vehicle control (propylene glycol) and saline delivered intraperitoneally (IP):\nPrior to initiation of drug delivery baseline behavioral and testing data were taken.\nOn the morning of testing, a small metal band (0.5 g) was loosely placed around the right hind paw. The rat was placed in a cylindrical Plexiglas chamber for adaptation a minimum of 30 minutes. Test Article or Vehicle Control Article was administered 10 minutes prior to formalin injection (50 μl of 5% formalin) into the dorsal surface of the right hindpaw of the rat. The animal was then placed into the chamber of the automated formalin apparatus where movement of the formalin injected paw was monitored and the number of paw flinches tallied by minute over the next 60 minutes (Malmberg, A. B., et al., Anesthesiology (1993) 79:270-281).\nResults are presented as Maximum Possible Effect±SEM, where saline control=100%."}, "[3]": {"tested_on": "P/Q-type channels (α1A+α2δ+β1b)", "test": "Selectivity patch clamp, P/Q-type channels transiently expressed in HEK 293 cells", "assay_type": "cell-based", "conditions": "N-type vs P/Q-type", "procedure": "as §1\n(§2) After an incubation period of from 24 to 72 hrs the culture medium was removed and replaced with external recording solution (see below). Whole cell patch clamp experiments were performed using an Axopatch 200B amplifier (Axon Instruments, Burlingame, Calif.) linked to an IBM compatible personal computer equipped with pCLAMP software. Borosilicate glass patch pipettes (Sutter Instrument Co., Novato, Calif.) were polished (Microforge, Narishige, Japan) to a resistance of about 4 MΩ when filled with cesium methanesulfonate internal solution (composition in MM: 109 CsCH3 SO4, 4 MgCl2, 9 EGTA, 9 HEPES, pH 7.2). Cells were bathed in 5 mM Ba^++ (in mM: 5 BaCl2, 1 MgCl2, 10 HEPES, 40 tetraethylammonium chloride, 10 glucose, 87.5 CsCl pH 7.2). Current data shown were elicited by a train of 100 ms test pulses at 0.066 Hz from −100 mV and/or −80 mV to various potentials (min. −20 mV, max. +30 mV). Drugs were perfused directly into the vicinity of the cells using a microperfusion system. […]"}, "[4]": {"tested_on": "L-type channels (α1C+α2δ+β1b)", "test": "Selectivity patch clamp, L-type channels transiently expressed in HEK 293 cells", "assay_type": "cell-based", "conditions": "N-type vs L-type", "procedure": "as §1, §2"}}, "data": [{"smiles": "CC(C)(C)c1cc(C(=O)NCC2CCN(C(=O)CCCCC(c3ccc(F)cc3)c3ccc(F)cc3)C2)cc(C(C)(C)C)c1", "note": "(stereo not shown) [Compound P17]", "values": [{"measurement": "IC50", "setting": "[1]", "result": 60, "unit": "nM"}, {"measurement": "IC50", "setting": "[2]", "result": 29, "unit": "nM"}, {"measurement": "Maximum Possible Effect ± SEM, Phase I", "setting": "rat formalin model", "result": "74 ± 8", "unit": "%"}, {"measurement": "Maximum Possible Effect ± SEM, Phase II", "setting": "rat formalin model", "result": "84 ± 9", "unit": "%"}, {"measurement": "Maximum Possible Effect ± SEM, Phase IIA", "setting": "rat formalin model", "result": "79 ± 9", "unit": "%"}, {"measurement": "selectivity for N-type over P/Q-type channels", "setting": "[3]", "result": "approximately 31 fold"}, {"measurement": "selectivity for N-type over L-type channels", "setting": "[4]", "result": "greater than 75 fold"}]}]}
